Where two headings read alike, the source gives them in different places.
How the values were obtained:
[1] = tested on: T-Rex 293 cell line SC3 cells lacking increased expression of androgen receptor protein; test: Cellular growth inhibition assay, T-Rex 293 SC3 cells without doxycycline (CellTiter-Glo, 72 hours); format: cell-based; details: T-Rex 293 cell line SC3 cells not exposed to doxycycline (lacking increased androgen receptor expression)
Procedure, shortened: (§1)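 Doxycycline (10 ng/mL) was either included or omitted to toggle wild-type androgen receptor expression in SC3 cells, a T-Rex 293 clone, grown in stripped-serum, phenol red-free medium. After 72 hours with compound, viable cells were quantified by CellTiter-Glo 2.0.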

VCaP cells = test: Cellular growth inhibition assay for VCaP cells (CellTiter-Glo, 72 hours); format: cell-based, human
Procedure, shortened: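 Luminescent viability signal after 72 h of compound exposure gave GI50 values by four-parameter nonlinear regression. Compounds were added in 0.5% DMSO to cells plated 24 h earlier at 5000/well in DMEM containing 10% FBS.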

[2] = tested on: T-Rex 293 cell line SC3 cells having increased expression of androgen receptor protein due to exposure to doxycycline; test: Cellular growth inhibition assay, T-Rex 293 SC3 cells with doxycycline (CellTiter-Glo, 72 hours); format: cell-based; details: T-Rex 293 SC3 cells with increased androgen receptor expression due to doxycycline (10 ng/mL)
Procedure, shortened: as §1

T47D cells = test: Cellular growth inhibition assay for T47D cells (CellTiter-Glo, 72 hours); format: cell-based, human; details: 72 hours treatment
Procedure: T47D cells were purchased from American Type Cell Culture (ATCC Cat #HTB-133) and then seeded on poly-D-lysine coated, black clear-bottom 384-well plates at 3000/well in 25 μL Dulbecco's Modified Eagle Medium (DMEM) supplemented with 10% w/w Fetal bovine serum (FBS), 0.2 units/mL recombinant human insulin (Gibco Cat #12585014), and 1% w/w Pen-Strep. Pen-Strep is a commercially available mixture of penicillin G and streptomycin, which is used in mammalian cell culture media to prevent bacterial contamination. Dulbecco's Modified Eagle Medium (DMEM) supplemented with 10% w/w fetal bovine serum (FBS), 0.2 units/mL recombinant human insulin, and 1% w/w Pen-Strep is herein referred to as Treatment Medium. Following seeding of cells in the plates, the plates were spun at 300×g for 30 seconds, then equilibrated to room temperature for 30 minutes, and then deposited in a humidified tissue culture incubator maintained at 37° C. with 5% CO2.
At 24 hours after seeding of the cells, dilutions of test compound were prepared in DMSO and dissolved in Treatment Medium, to achieve a final DMSO concentration of 0.5% w/w, thereby providing the Test Compound Solution. A 25 μL aliquot of the Test Compound Solution was added to cells in the well plates. An equal volume of a solution containing DMSO and Treatment Medium was used as a negative control. Following treatment of cells with Test Compound Solution or said equal volume of a solution containing DMSO and Treatment Medium, the plates were spun at 300×g for 30 seconds, and then left in an incubator for 72 hours.
At the end of the treatment duration, cell viability was quantified with CellTiter-Glo 2.0 reagent (Promega Cat #G9243). For this purpose, plates were equilibrated to room temperature for 30 minutes, and then 25 μL of CellTiter-Glo 2.0 reagent was added to cells in the plate wells. Plates were then agitated on a shaker for two minutes at 500 rpm and subsequently incubated at room temperature for 10 minutes. Following incubation, the plates were spun at 3000×g for 30 seconds, then sealed with an optical adhesive cover, and luminescence readings were measured with an EnVision Plate Reader (Perkin Elmer).
Data was normalized using zero luminescence for baseline. A four-parameter non-linear regression curve fit was applied to dose-response data in GraphPad Prism data analysis software to determine the half-maximal growth inhibitory concentration (GI50) for each test compound.

| Structure (SMILES) | GI50 ([1]; 72 h) | GI50 (VCaP cells; Homo sapiens, VCaP, 72 h) | GI50 ([2]; 72 h) | GI50 (T47D cells; Homo sapiens, T47D, 72 h) | GI50 [1] | GI50 (VCaP cells) | GI50 [2] | GI50 (T47D cells) |
| --- | --- | --- | --- | --- | --- | --- | --- | --- |
| Cc1sc2c(c1C)C(c1ccc(N3CCC[C@H](C(=O)N4CCC[C@@H](c5ccc(C(=O)N[C@H]6CC[C@H](Oc7ccc(C#N)c(Cl)c7)CC6)nn5)C4)C3)cc1)=N[C@H](Cc1ncco1)c1nnc(C)n1-2 [I-304] | > 3 µM | > 3 µM | > 3 µM | > 3 µM | – | – | – | – |
| Cc1sc2c(c1C)C(c1ccc(CO[C@H]3C[C@@]4(CCCN(c5ccc(C(=O)N[C@H]6CC[C@H](Oc7ccc(C#N)c(Cl)c7)CC6)nn5)C4)C3)cc1)=N[C@@H](C)c1nnc(C)n1-2 [I-353] | > 3 µM | < 0.5 µM | < 0.5 µM | 0.5 to 1.5 µM | – | – | – | – |
| Cc1sc2c(c1C)C(c1ccc(OC[C@H]3CC[C@]4(CCCN(c5ccc(C(=O)N[C@H]6CC[C@H](Oc7ccc(C#N)c(Cl)c7)CC6)nn5)C4)C3)nc1)=N[C@@H](Cc1ncco1)c1nnc(C)n1-2 [I-329] | > 3 µM | < 0.5 µM | < 0.5 µM | > 3 µM | – | – | – | – |
| Cc1sc2c(c1C)C(c1ccc(OC3CC4(CCN(c5ccc(C(=O)N[C@H]6CC[C@H](Oc7ccc(C#N)c(Cl)c7)CC6)nn5)CC4)C3)cc1)=N[C@@H](CC#N)c1nnc(C)n1-2 [I-83] | > 3 µM | < 0.5 µM | < 0.5 µM | < 0.5 µM | – | – | – | – |
| Cc1sc2c(c1C)C(c1ccc(OCC[C@H]3CCCN(c4ccc(C(=O)N[C@H]5CC[C@H](Oc6ccc(C#N)c(Cl)c6)CC5)nn4)C3)cc1)=N[C@@H](Cc1ncco1)c1nnc(C)n1-2 [I-257] | < 0.5 µM | < 0.5 µM | < 0.5 µM | < 0.5 µM | – | – | – | – |
| Cc1sc2c(c1C)C(c1ccc([C@@H]3CCN(C(=O)[C@@H]4CCCN(c5ccc(C(=O)N[C@H]6CC[C@H](Oc7ccc(C#N)c(Cl)c7)CC6)nn5)C4)C3)cc1)=N[C@@H](Cc1ncco1)c1nnc(C)n1-2 [I-341] | > 3 µM | > 3 µM | > 3 µM | > 3 µM | – | – | – | – |
| Cc1sc2c(c1C)C(c1ccc(CC[C@H]3C[C@@]4(CCCN(c5ccc(C(=O)N[C@H]6CC[C@H](Oc7ccc(C#N)c(Cl)c7)CC6)nn5)C4)C3)cc1)=N[C@@H](C)c1nnc(C)n1-2 [I-326] | – | – | – | – | > 3 µM | < 0.5 µM | < 0.5 µM | < 0.5 µM |
| Cc1sc2c(c1C)C(c1ccc([C@H]3C[C@H]([C@@H]4CCCN(c5ccc(C(=O)N[C@H]6CC[C@H](Oc7ccc(C#N)c(Cl)c7)CC6)nn5)C4)C3)cc1)=N[C@@H](Cc1ncco1)c1nnc(C)n1-2 [I-377] | < 0.5 µM | < 0.5 µM | < 0.5 µM | < 0.5 µM | – | – | – | – |
| Cc1sc2c(c1C)C(c1ccc([C@H]3CC[C@H](N4CCCN(c5ccc(C(=O)N[C@H]6CC[C@H](Oc7ccc(C#N)c(Cl)c7)CC6)nn5)CC4)CC3)cc1)=N[C@@H](Cc1ncco1)c1nnc(C)n1-2 [I-236] | > 3 µM | > 3 µM | < 0.5 µM | > 3 µM | – | – | – | – |
| Cc1sc2c(c1C)C(c1ccc(N3CC(C4CCN(c5ccc(C(=O)N[C@H]6CC[C@H](Oc7ccc(C#N)c(Cl)c7)CC6)nn5)CC4)C3)cc1)=N[C@@H](Cc1ncco1)c1nnc(C)n1-2 [I-386] | < 0.5 µM | < 0.5 µM | < 0.5 µM | < 0.5 µM | – | – | – | – |
| CCNC(=O)C[C@@H]1N=C(c2ccc(N3CCC(N(C)C4CCN(c5ccc(C(=O)N[C@H]6CC[C@H](Oc7ccc(C#N)c(Cl)c7)CC6)nn5)CC4)CC3)cc2)c2c(sc(C)c2C)-n2c(C)nnc21 [I-43] | 1.5 to 3 µM | < 0.5 µM | < 0.5 µM | 0.5 to 1.5 µM | – | – | – | – |
| Cc1sc2c(c1C)C(c1ccc(CCCN3CCCN(c4ccc(C(=O)N[C@H]5CC[C@H](Oc6ccc(C#N)c(Cl)c6)CC5)nn4)CC3)cc1)=N[C@@H](Cc1ncco1)c1nnc(C)n1-2 [I-126] | < 0.5 µM | < 0.5 µM | < 0.5 µM | < 0.5 µM | – | – | – | – |
| Cc1sc2c(c1C)C(c1ccc([C@H]3C[C@H](C[C@H]4CCCN(c5ccc(C(=O)N[C@H]6CC[C@H](Oc7ccc(C#N)c(Cl)c7)CC6)nn5)C4)C3)cc1)=N[C@@H](Cc1ncco1)c1nnc(C)n1-2 [I-358] | > 3 µM | < 0.5 µM | < 0.5 µM | < 0.5 µM | – | – | – | – |
| Cc1sc2c(c1C)C(c1ccc(O[C@@H]3CC[C@@]4(CCCN(c5ccc(C(=O)N[C@H]6CC[C@H](Oc7ccc(C#N)c(Cl)c7)CC6)nn5)C4)C3)nc1)=N[C@@H](Cc1ncco1)c1nnc(C)n1-2 [I-285] | – | < 0.5 µM | < 0.5 µM | – | > 3 µM | – | – | 1.5 to 3 µM |
| Cc1sc2c(c1C)C(c1ccc(C#CC3CC4(CCCN(c5ccc(C(=O)N[C@H]6CC[C@H](Oc7ccc(C#N)c(Cl)c7)CC6)nn5)C4)C3)cc1)=NCc1nnc(C)n1-2 (stereo partly drawn) [I-420] | > 3 µM | < 0.5 µM | < 0.5 µM | 1.5 to 3 µM | – | – | – | – |
| Cc1sc2c(c1C)C(c1ccc(O[C@H]3C[C@@]4(CCCN(c5ccc(C(=O)N[C@H]6CC[C@H](Oc7ccc(C#N)c(Cl)c7)CC6)nn5)C4)C3)cc1)=N[C@@H](Cc1ncco1)c1nnc(C)n1-2 [I-92] | < 0.5 µM | < 0.5 µM | < 0.5 µM | 0.5 to 1.5 µM | – | – | – | – |
| Cc1sc2c(c1C)C(c1ccc(CNC(=O)[C@@H]3CCCN(c4ccc(C(=O)N[C@H]5CC[C@H](Oc6ccc(C#N)c(Cl)c6)CC5)nn4)C3)cc1)=N[C@@H](Cc1ncco1)c1nnc(C)n1-2 [I-230] | 0.5 to 1.5 µM | 0.5 to 1.5 µM | < 0.5 µM | 1.5 to 3 µM | – | – | – | – |
| Cc1sc2c(c1C)C(c1ccc([C@H]3C[C@H]([C@H]4CCCN(c5ccc(C(=O)N[C@H]6CC[C@H](Oc7ccc(C#N)c(Cl)c7)CC6)nn5)C4)C3)cc1)=N[C@@H](Cc1ncco1)c1nnc(C)n1-2 [I-375] | > 3 µM | < 0.5 µM | < 0.5 µM | > 3 µM | – | – | – | – |
| Cc1sc2c(c1C)C(c1ccc(CC3CC4(CCCN(c5ccc(C(=O)N[C@H]6CC[C@H](Oc7ccc(C#N)c(Cl)c7)CC6)nn5)C4)C3)cc1)=N[C@@H](C)c1nnc(C)n1-2 (stereo partly drawn) [I-338] | > 3 µM | < 0.5 µM | < 0.5 µM | 0.5 to 1.5 µM | – | – | – | – |
| Cc1sc2c(c1C)C(c1ccc(O[C@H]3C[C@@]4(CCCN(c5ccc(C(=O)N[C@H]6CC[C@H](Oc7ccc(C#N)c(Cl)c7)CC6)nn5)C4)C3)nc1)=N[C@H](Cc1ncco1)c1nnc(C)n1-2 [I-221] | > 3 µM | > 3 µM | < 0.5 µM | > 3 µM | – | – | – | – |
| Cc1sc2c(c1C)C(c1ccc(OC[C@H]3CC[C@@]4(CCCN(c5ccc(C(=O)N[C@H]6CC[C@H](Oc7ccc(C#N)c(Cl)c7)CC6)nn5)C4)C3)nc1)=N[C@@H](Cc1ncco1)c1nnc(C)n1-2 [I-328] | < 0.5 µM | < 0.5 µM | < 0.5 µM | 0.5 to 1.5 µM | – | – | – | – |
| Cc1sc2c(c1C)C(c1ccc(N3CCC4(CC3)CCN(c3ccc(C(=O)NC5CCC(Oc6ccc(C#N)c(Cl)c6)CC5)nn3)CC4)cc1)=N[C@@H](Cc1ncco1)c1nnc(C)n1-2 (stereo partly drawn) [I-397] | < 0.5 µM | < 0.5 µM | < 0.5 µM | < 0.5 µM | – | – | – | – |
| Cc1sc2c(c1C)C(c1ccc(OC3CC4(CCCN(c5ccc(C(=O)N[C@H]6CC[C@H](Oc7ccc(C#N)c(Cl)c7)CC6)nn5)C4)C3)nc1)=N[C@@H](Cc1ncco1)c1nnc(C)n1-2 (stereo partly drawn) [I-247] | < 0.5 µM | < 0.5 µM | < 0.5 µM | < 0.5 µM | – | – | – | – |
| Cc1sc2c(c1C)C(c1ccc(C#CCC3CCN(c4ccc(C(=O)N[C@H]5CC[C@H](Oc6ccc(C#N)c(Cl)c6)CC5)nn4)CC3)cc1)=N[C@H](Cc1ncco1)c1nnc(C)n1-2 [I-137] | > 3 µM | 0.5 to 1.5 µM | < 0.5 µM | 1.5 to 3 µM | – | – | – | – |
